For 15 compounds, inhibition results are on record in patent US4994485A, “Thio compounds having fungicidal activity” (Duphar International Research B.V., priority 1986, dated 1991).

Assay type in all cases: cell-based
The test system of one assay is Pyrenophora graminea. The assay can be described thus: In vitro test on activity against Pyrenophora graminea. As to conditions: 48 hours, 20° C., read-out: % growth inhibition of the fungus. On the procedure:
In vitro test on activity against Pyrenophora graminea.
(§1) The compound to be tested is processed in a culture medium consisting of 1% by weight of glucose, 0.2% by weight of a yeast extract (marmite), 0.5% by weight of a protein (pepton), 2.5% by weight of agar-agar, and 95.8% by weight of water, in petri dishes in concentrations of 3 and 10 ppm. The petri dishes are inoculated with the plant-pathogenic fungus Pyrenophora graminea and then kept at a temperature of 20° C. After 48 hours the growth-inhibiting activity of the compounds is determined visually. For comparison, the known substance (b) (see EXAMPLE XV) is also tested.

The next assay concerns Fusarium culmorum. Description: In vitro test on activity against Fusarium culmorum. As to conditions: read-out: growth inhibition of the fungus.
The next assay concerns Pythium splendens. Description: In vitro test on activity against Pythium splendens. As to conditions: Globisporangium splendens, read-out: growth inhibition of the fungus.
For a further assay, the system named is Leptosphaeria nodorum. Description: In vitro test on activity against Leptosphaeria nodorum. As to conditions: Parastagonospora nodorum, read-out: growth inhibition of the fungus. On the procedure:
as §1
Compounds according to the invention are tested on i Leptosphaeria nodorum in the same manner as described in EXAMPLE XIX.

For the compound `CCCC[S+]([O-])c1sc(C#N)c(Br)c1C#N` (stereo not shown) [(79), 2-n-butylsulphinyl-3,5-dicyano-4-bromothiophene], the inhibition (commonly how much of the control response was suppressed) at 10 ppm with Pyrenophora graminea was 80%; in the assay with Pythium splendens it was no less than 95%. In the assay on Fusarium culmorum, the inhibition at 30 ppm is no less than 75%.

Regarding `CCC[S+]([O-])c1sc(C(=O)c2ccccc2)c(N)c1C#N` (stereo not shown) [(67), 2-n-propylsulphinyl-3-cyano-4-amino-5-benzoylthiophene], the inhibition at 30 ppm in the assay on Leptosphaeria nodorum was no less than 85%; with Fusarium culmorum, no less than 75%. In addition, in the assay with Pythium splendens, the inhibition at 10 ppm was no less than 95%.

As for `N#Cc1sc([S+]([O-])Cc2ccccc2)c(C#N)c1Cl` (stereo not shown) [(78), 2-benzylsulphinyl-3,5-dicyano-4-chlorothiophene], the inhibition at 10 ppm with Pyrenophora graminea is 86%; in the assay on Pythium splendens, no less than 95%. Further, the inhibition at 30 ppm in the assay with Fusarium culmorum is no less than 75%.

On to `N#Cc1sc([S+]([O-])c2ccccc2)c(C#N)c1Cl` (stereo not shown) [(82), 2 phenylsulphinyl-3,5-dicyano-4-chlorothiophene], for which the inhibition at 10 ppm is 80% in the assay with Pyrenophora graminea and no less than 95% in the assay on Pythium splendens. Further, the inhibition at 30 ppm in the assay with Fusarium culmorum is no less than 75%.

Take `CCCC[S+]([O-])c1sc(C#N)c(OC)c1C#N` (stereo not shown) [(41), 2-n-butylsulphinyl-3,5-dicyano 4-methoxythiophene]: the inhibition at 30 ppm in the assay with Leptosphaeria nodorum is no less than 85%; in the assay with Fusarium culmorum, no less than 75%. The inhibition at 10 ppm in the assay with Pythium splendens was no less than 95%.

Turning to `CCCC[S+]([O-])c1sc(C(C)=O)c(N)c1C#N` (stereo not shown) [(58), 2-n-butylsulphinyl-3 cyano-4-amino-5-acetylthiophene], the inhibition at 30 ppm was no less than 85% with Leptosphaeria nodorum and no less than 75% in the assay with Fusarium culmorum. Also, the inhibition at 10 ppm in the assay with Pythium splendens was no less than 95%.

As to `N#Cc1cc(C#N)c([S+]([O-])c2ccccc2)s1` (stereo not shown) [(32), 2-phenylsulphinyl-3,5-dicyanothiophene], the inhibition at 30 ppm in the assay with Leptosphaeria nodorum is no less than 85%; with Fusarium culmorum, no less than 75%. In addition, the inhibition at 10 ppm in the assay with Pythium splendens was no less than 95%.

As to `COc1c(C(=O)c2ccccc2)sc([S+](C)[O-])c1C#N` (stereo not shown) [(74), 2-methylsulphinyl-3-cyano-4-methoxy-5-benzoylthiophene], the inhibition at 30 ppm was no less than 85% with Leptosphaeria nodorum and no less than 75% with Fusarium culmorum. In the assay on Pythium splendens, the inhibition at 10 ppm was no less than 95%.

`CC[S+]([O-])c1sc(C(=O)c2ccc(Cl)cc2)c(N)c1C#N` (stereo not shown) [(66), 2 ethylsulphinyl-3-cyano-4-amino-5-(4-chlorobenzoyl)thiophene]: the results for the inhibition at 10 ppm in the assay on Pyrenophora graminea and with Pythium splendens were 84% and no less than 95%, respectively.

Turning to `CC(=O)c1sc([S+](C)[O-])c(C#N)c1-c1ccc(Cl)cc1` (stereo not shown) [(6), 2-methylsulphinyl 3-cyano-4-(4-chlorophenyl)-5-acetylthiophene], in the assay on Pyrenophora graminea (3 ppm), the inhibition at 3 ppm came to 54%. In addition, the inhibition at 10 ppm in the assay with Pyrenophora graminea was 77%; in the assay with Pythium splendens it was no less than 95%.

Turning to `CC[S+]([O-])c1sc(C#N)c(Oc2ccccc2)c1C#N` (stereo not shown) [(94), 2-ethylsulphinyl-3,5-dicyano-4-phenoxythiophene], the inhibition at 30 ppm with Leptosphaeria nodorum was no less than 85%. For the same compound, the inhibition at 10 ppm is 70% in the assay with Pyrenophora graminea and no less than 95% in the assay on Pythium splendens.

On to `CCC[S+]([O-])c1sc(C#N)cc1C#N` (stereo not shown) [(40), 2-n-propylsulphinyl 3,5-dicyanothiophene], for which the inhibition at 30 ppm in the assay with Leptosphaeria nodorum was no less than 85%; in the assay on Fusarium culmorum it was no less than 75%. The inhibition at 10 ppm with Pythium splendens is no less than 95%.

Turning to `N#Cc1cc(C#N)c(S(=O)(=O)c2ccccc2)s1` [(45), 2-phenylsulphonyl-3,5-dicyanothiophene], the inhibition at 30 ppm was no less than 85% in the assay with Leptosphaeria nodorum and no less than 75% in the assay with Fusarium culmorum. Besides, the inhibition at 10 ppm in the assay on Pythium splendens is no less than 95%.

For `CCCCS(=O)(=O)c1sc(C#N)c(Br)c1C#N` [(89), 2-n-butylsulphonyl 3,5-dicyano-4-bromothiophene], the values for the inhibition at 30 ppm in the assay with Leptosphaeria nodorum and in the assay on Fusarium culmorum were no less than 85% and no less than 75%, respectively. Moreover, in the assay on Pythium splendens, the inhibition at 10 ppm is no less than 95%.

For `CCCC[S+]([O-])c1sc(C(=O)c2ccccc2)c(N)c1C#N` (stereo not shown) [(88), 2-n-butylsulphinyl-3-cyano-4-amino-5-benzoylthiophene], the inhibition at 30 ppm with Leptosphaeria nodorum was no less than 85%; in the assay on Fusarium culmorum it was no less than 75%.
